This is an account of results in paper PMC4310350 (Drug Design, Development and Therapy, 2015).

One series addresses T1, OAT3 (Homo sapiens, UniProt Q8TCC7).
T1 sequence (Q8TCC7 1-542): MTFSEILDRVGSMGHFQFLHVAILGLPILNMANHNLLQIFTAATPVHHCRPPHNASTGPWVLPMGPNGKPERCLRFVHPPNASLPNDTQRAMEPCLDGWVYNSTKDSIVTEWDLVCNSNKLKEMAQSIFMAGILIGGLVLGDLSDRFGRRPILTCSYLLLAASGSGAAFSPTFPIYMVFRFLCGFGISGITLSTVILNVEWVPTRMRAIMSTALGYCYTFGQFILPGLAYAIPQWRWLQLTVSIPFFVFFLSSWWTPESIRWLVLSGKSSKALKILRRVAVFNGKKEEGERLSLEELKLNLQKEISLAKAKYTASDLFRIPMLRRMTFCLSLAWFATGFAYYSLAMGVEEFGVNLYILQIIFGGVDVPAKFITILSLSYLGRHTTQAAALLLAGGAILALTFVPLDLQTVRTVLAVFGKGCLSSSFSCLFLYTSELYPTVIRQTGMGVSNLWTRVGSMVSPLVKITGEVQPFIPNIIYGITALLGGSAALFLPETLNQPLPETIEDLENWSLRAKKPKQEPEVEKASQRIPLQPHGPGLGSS
The series is described as follows: Uptake in HEK293 cells overexpressing OAT3. It is filed as in vitro ADME.

A further series concerns the target T2, OATP1B1 (Homo sapiens, UniProt Q9Y6L6).
T2 sequence (Q9Y6L6 1-691): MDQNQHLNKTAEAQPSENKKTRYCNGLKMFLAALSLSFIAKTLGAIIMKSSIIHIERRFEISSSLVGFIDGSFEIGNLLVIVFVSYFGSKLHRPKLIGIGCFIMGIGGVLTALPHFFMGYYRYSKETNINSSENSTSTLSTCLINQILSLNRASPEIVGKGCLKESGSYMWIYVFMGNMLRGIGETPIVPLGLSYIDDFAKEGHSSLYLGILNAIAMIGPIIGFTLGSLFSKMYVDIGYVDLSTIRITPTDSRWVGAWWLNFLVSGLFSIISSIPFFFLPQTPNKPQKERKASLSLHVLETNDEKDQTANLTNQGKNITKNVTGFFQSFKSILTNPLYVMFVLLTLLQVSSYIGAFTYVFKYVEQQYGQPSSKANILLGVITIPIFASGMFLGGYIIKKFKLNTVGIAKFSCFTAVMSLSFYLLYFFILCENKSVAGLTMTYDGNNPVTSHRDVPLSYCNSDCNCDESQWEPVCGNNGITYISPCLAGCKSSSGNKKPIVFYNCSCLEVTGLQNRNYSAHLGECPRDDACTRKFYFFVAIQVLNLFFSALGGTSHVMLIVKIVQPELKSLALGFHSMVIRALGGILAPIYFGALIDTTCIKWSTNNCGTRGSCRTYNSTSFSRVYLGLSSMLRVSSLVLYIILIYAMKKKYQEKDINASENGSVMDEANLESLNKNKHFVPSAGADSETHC
The series is described as follows: Uptake in HEK293 cells overexpressing OATP1B1. The note with it: OATP1B1-mediated uptake. It is filed as in vitro ADME.

A further series has as its target T3, OCT1 (Homo sapiens, UniProt O15245).
T3 sequence (O15245 1-554): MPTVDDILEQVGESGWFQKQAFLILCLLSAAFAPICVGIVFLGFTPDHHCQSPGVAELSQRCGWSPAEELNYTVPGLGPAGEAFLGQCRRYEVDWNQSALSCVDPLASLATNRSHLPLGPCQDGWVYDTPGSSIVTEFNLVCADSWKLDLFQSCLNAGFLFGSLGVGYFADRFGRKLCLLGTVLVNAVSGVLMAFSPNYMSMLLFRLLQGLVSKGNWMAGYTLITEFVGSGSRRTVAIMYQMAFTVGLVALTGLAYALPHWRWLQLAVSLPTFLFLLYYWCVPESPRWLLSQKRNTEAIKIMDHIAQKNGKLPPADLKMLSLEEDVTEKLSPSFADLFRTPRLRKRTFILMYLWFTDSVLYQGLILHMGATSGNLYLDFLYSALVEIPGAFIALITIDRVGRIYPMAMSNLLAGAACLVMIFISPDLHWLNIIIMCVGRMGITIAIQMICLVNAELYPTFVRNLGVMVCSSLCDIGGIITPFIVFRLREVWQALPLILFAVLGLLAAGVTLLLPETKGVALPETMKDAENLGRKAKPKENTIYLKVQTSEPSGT
Put plainly: Uptake in HEK293 cells overexpressing OCT1. The series is classed as in vitro ADME. To be noted: OCT1, influx.

Series [1] deals with suppression of cytokines, antioxidative effect, and PPAR-α activation. To be noted: in vitro cell system; cited from earlier work.

Turning to `O=C(O[C@H]1[C@@H]2C=CO[C@@H](O[C@@H]3O[C@H](CO)[C@@H](O)[C@H](O)[C@H]3O)[C@@H]2[C@@]2(CO)O[C@@H]12)c1ccc(O)cc1` [catalposide], on OAT3 (OAT3 vs OATP1B1), the “Clint for OAT3 relative to OATP1B1” value stood at 31.8 fold. In addition, at OAT3 (OAT3 vs OATP1B3), the “Clint for OAT3 relative to OATP1B3” value is on record as 32.7 fold. On OATP1B1, the Hill coefficient n is roughly 1. Also, on OCT1, the Substrate entry is listed as “not involved”. Besides, the Effective concentration in series [1] is 0.2 to 4 µM.
